Measured values reported in patent US20120237524A1, “MET INHIBITORS FOR ENHANCING RADIOTHERAPY EFFICACY” (priority 2011, published 2012).

Tests used:
ATM kinase = target: T1, ATM kinase (Homo sapiens, UniProt Q13315); test: ATM kinase inhibition in irradiated cells, western blot time course; assay type: cell-based; conditions: MDA-MB-435S or MDA-MB-231, 10 μM, time course after irradiation
T1 construct: endogenous in cells; host or cells: MDA-MB-435S, MDA-MB-231 (ATCC)
Method: Met protein expression, Chk2 phosphorylation (p-Chk2) and p65/RelA nuclear translocation in MDA-MB-435S treated with the ATM kinase inhibitor CGK733, and extracted at the indicated time-points after irradiation. ctrl, non-irradiated cells at time zero.
Cell lines (A549, MDA-MB-231, LoVo, MDAMB-4355, U-87MG, U-251, PC3, SF295, DLD1, SK-N-SH) were from ATCC. For ATM kinase inhibition, cells were pre-treated for 4 h before irradiation and then kept in the presence of CGK733 (10 μM in DMSO). siRNAs targeting RELA (ON-TARGET plus SMART pool L-003533-00 Human RELA, NM 021975, Dharmacon, 100 nM), or control siRNAs (ON-TARGET plus SMART pool, siCONTROL Non Targeting siRNA, Dharmacon) were transiently transfected.
Protein expression was investigated in irradiated confluent, serum-starved cells. For fractionation in cytoplasmic and nuclear portions, cells were washed and incubated on ice for 10 min in “buffer A” (10 mM HEPES pH 7.9, 10 mM KCl, 0.1 mM EDTA, 0.5% NP-40, 1 mM dithiothreitol, 1 mM phenylmethylsulfonyl fluoride and a cocktail of protease inhibitors). Supernatants, containing the cytoplasmic extracts, were separated by centrifugation. Pellets were resuspended in “buffer B” (20 mM HEPES pH 7.9, 400 mM KCl, 1 mM EDTA, 1 mM dithiothreitol, 10% glycerol, 1 mM phenylmethylsulfonyl fluoride and a cocktail of protease inhibitors) and incubated at 4° C. for 1 h with vigorous mixing. The resulting nuclear lysates were clarified by high-speed centrifugation. Equal amount of proteins were resolved by SDS-PAGE and analysed by western blot with the following primary antibodies: mouse anti-human Met (DL21 disclosed in Prat et al., Int. J. Cancer 49, 323-328 (1991)), mouse anti-p65/RelA and mouse anti-HIF-1α (BD Biosciences), rabbit anti-phospho-Ser276 and rabbit anticaspase-3 (Cell Signaling), rabbit anti-phospho-Chk2 (T68, R&D Systems). Goat anti-actin (C-11; Santa Cruz Biotechnology) and mouse anti-lamin B (Calbiochem) were used for control of equal cytoplasmic or nuclear protein loading, respectively. […] Densitometric analysis was performed with Quantity One 1-D (Bio-Rad Laboratories). […]

Met = target: T2, Met (Homo sapiens, UniProt P08581); test: Met phosphorylation (immunoprecipitation, anti-phospho-Tyr western blot) in MDA-MB-231; assay type: cell-based; conditions: MDA-MB-231, HGF 50 ng/ml (non-saturating)
T2 construct: Met phosphorylation in MDA-MB-231 treated with HGF (50 nM) and/or IR (10 Gy); endogenous in cells; host or cells: MDA-MB-231 (ATCC)

MDA-MB-4355 spheroids = test: Branching morphogenesis assay; assay type: cell-based, human; conditions: HGF 5 nM alone (suboptimal concentration), non-irradiated MDA-MB-4355
Method: a, Basement membrane invasion by irradiated MDA-MB-231 or U-251 (10 Gy; ctrl, control). Micrographs of transwell filters (10×). b, Aberrant Met-induced branching morphogenesis in irradiated MDA-MB-4355 (10 Gy; ctrl, control), cultured with or without (−) the indicated HGF concentrations. Scale bar: 100 μm.
MDA-MB-4355 spheroids were preformed by single-cell resuspension in 240 mg/ml methylcellulose (Sigma) and culture in nonadherent 96-well plates (Greiner) for 24 h. Spheroids were transferred into a matrix containing 1.3 mg/ml type I collagen from rat tail (BD Biosciences), 10% FBS, and 240 mg/ml methylcellulose. After 24 h, cells were irradiated and/or cultured in the presence of HGF for 7 days. HGF was obtained as a baculovirus recombinant protein in SF9 cells. The conditioned medium from uninfected cells was used as negative control. Images are representative of results obtained in three independent experiments.

U-251 = test: Cell viability assay with DN30 Fab, with irradiation (10 Gy); assay type: cell-based, human
Method: Viability of U-251 irradiated with 10 Gy and/or cultured in the presence of the Fab fragment of the DN30 anti-Met antibody, for 48 h (vehicle: non-irradiated cells). Columns: mean of triplicate analyses of three independent experiments±s.e.m. […] Columns: percentage of cells generating clones (mean of triplicate analyses of two independent experiments±s.e.m., * p<0.05, n=6, paired t-test).
10^3 cells were seeded in 96-well plates and grown for 24 h. Culture medium was replaced with medium containing 1% FBS and DN30 Fab (28 μg/ml) or the vehicle alone (PBS). After 24 h, cells were irradiated (10 Gy). Cell viability was assessed as above.

T1 sequence (Q13315 whole entry): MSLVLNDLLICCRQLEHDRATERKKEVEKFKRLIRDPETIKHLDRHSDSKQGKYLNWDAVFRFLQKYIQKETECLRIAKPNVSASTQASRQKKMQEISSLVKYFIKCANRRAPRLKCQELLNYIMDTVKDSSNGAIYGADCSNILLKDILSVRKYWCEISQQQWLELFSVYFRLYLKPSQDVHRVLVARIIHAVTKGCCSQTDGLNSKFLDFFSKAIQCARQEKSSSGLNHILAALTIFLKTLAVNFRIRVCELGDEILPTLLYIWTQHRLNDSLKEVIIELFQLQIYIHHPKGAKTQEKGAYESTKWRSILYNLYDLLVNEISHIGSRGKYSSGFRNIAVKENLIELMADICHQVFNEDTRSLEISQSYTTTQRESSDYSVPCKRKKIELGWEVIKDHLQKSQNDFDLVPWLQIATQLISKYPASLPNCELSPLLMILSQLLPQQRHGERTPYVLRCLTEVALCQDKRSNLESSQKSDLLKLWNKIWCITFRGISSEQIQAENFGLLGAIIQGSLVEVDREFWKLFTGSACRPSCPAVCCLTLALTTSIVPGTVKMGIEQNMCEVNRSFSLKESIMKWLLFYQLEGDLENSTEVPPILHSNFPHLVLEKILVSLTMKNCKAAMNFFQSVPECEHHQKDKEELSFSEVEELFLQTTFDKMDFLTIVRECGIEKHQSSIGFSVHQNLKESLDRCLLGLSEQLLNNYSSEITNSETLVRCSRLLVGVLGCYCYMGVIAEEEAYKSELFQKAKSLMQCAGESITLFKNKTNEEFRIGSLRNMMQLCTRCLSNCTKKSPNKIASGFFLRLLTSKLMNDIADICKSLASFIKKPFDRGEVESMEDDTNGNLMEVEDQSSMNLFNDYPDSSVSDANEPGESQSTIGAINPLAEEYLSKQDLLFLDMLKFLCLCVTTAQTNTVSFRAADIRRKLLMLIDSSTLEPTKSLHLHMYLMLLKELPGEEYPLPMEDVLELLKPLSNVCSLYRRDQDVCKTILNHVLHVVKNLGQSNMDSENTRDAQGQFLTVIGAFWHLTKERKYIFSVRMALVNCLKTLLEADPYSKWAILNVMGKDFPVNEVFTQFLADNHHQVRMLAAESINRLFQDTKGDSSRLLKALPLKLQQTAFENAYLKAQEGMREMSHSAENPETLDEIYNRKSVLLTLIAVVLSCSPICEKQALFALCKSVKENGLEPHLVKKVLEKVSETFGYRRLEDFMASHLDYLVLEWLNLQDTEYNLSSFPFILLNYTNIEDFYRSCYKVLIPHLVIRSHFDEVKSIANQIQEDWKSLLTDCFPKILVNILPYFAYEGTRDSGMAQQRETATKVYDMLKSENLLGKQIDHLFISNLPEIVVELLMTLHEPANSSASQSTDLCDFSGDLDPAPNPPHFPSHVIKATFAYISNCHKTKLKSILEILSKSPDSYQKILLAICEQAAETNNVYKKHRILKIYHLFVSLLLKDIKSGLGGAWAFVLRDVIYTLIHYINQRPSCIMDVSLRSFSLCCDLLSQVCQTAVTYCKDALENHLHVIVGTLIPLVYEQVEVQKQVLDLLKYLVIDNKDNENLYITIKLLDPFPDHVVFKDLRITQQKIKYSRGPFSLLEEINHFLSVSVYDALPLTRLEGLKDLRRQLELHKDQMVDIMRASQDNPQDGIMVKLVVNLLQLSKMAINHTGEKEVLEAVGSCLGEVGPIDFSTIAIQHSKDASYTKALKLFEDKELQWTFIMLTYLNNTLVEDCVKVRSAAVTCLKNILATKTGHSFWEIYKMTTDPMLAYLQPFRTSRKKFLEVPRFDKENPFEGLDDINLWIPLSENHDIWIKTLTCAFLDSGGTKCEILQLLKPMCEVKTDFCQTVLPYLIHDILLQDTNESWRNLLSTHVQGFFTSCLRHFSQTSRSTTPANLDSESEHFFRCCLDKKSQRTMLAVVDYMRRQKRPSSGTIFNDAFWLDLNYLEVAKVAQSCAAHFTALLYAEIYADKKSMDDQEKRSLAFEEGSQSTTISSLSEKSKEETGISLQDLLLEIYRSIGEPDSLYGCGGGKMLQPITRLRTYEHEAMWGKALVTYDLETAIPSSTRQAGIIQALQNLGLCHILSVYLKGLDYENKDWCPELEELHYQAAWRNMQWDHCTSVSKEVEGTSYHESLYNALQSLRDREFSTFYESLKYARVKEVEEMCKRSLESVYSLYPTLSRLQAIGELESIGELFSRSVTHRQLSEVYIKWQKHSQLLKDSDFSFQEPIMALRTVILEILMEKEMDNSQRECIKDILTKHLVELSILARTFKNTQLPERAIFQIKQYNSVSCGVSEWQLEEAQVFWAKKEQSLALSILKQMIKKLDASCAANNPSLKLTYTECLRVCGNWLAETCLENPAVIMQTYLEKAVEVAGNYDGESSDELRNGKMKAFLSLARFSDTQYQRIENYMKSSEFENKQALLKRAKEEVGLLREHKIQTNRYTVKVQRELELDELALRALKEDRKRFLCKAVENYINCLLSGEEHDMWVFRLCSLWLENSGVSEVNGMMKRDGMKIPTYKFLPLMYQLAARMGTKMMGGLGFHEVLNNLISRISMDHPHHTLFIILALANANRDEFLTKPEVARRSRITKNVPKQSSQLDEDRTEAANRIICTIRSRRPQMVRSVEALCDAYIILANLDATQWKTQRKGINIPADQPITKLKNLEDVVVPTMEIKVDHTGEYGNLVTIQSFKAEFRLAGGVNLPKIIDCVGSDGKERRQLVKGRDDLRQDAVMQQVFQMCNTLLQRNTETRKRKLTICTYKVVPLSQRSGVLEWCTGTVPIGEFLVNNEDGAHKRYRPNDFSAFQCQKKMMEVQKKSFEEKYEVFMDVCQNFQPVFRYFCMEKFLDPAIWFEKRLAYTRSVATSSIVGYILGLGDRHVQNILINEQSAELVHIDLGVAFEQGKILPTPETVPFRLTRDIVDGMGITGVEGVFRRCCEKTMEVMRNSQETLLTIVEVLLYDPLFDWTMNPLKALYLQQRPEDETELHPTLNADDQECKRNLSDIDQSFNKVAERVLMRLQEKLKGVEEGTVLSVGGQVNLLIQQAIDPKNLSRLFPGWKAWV
T2 sequence (P08581 25-1390): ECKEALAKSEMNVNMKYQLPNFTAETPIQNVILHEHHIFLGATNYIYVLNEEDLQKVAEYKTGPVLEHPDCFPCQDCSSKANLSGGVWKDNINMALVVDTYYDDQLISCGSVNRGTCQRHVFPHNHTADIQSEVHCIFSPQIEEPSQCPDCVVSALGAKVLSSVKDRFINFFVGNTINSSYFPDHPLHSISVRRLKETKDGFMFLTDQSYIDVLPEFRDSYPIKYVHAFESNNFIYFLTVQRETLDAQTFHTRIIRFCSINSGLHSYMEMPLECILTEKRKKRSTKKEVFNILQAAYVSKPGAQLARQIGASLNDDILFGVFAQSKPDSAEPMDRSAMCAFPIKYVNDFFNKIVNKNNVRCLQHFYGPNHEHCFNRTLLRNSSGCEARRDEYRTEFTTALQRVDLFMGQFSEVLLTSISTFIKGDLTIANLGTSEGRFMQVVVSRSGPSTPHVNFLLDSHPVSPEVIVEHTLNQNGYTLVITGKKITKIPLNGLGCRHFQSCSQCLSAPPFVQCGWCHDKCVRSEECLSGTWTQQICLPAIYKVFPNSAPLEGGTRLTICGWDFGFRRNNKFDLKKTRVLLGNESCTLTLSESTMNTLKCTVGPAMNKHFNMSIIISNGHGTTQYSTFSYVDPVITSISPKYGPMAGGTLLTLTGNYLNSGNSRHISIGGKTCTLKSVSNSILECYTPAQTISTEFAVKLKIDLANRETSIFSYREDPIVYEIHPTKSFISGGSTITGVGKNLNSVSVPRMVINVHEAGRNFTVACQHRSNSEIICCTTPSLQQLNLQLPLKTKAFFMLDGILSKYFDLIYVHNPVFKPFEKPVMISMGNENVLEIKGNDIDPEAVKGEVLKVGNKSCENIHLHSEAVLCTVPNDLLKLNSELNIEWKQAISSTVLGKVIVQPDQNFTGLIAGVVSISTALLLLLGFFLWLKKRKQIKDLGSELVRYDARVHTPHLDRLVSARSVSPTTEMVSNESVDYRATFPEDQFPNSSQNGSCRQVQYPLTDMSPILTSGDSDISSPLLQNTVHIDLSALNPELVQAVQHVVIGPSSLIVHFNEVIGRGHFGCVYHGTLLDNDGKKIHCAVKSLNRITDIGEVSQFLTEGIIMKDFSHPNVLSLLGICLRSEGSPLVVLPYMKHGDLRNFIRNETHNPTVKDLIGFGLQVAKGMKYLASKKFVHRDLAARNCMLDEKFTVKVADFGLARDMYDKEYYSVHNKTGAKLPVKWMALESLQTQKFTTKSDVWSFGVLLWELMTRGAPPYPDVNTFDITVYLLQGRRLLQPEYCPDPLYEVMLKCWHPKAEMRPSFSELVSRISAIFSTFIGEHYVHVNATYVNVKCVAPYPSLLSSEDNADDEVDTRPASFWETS

## O=C(NC(NC(=S)Nc1ccc(F)c([N+](=O)[O-])c1)C(Cl)(Cl)Cl)C(c1ccccc1)c1ccccc1 (stereo not shown) [CGK733]
ATM kinase
  IR-induced Met protein overexpression: prevented
  IR-induced p65/RelA nuclear translocation: prevented
  IR-induced phosphorylation of the specific ATM substrate Chk2: prevented

## HGF: Hepatocyte Growth Factor, Met ligand, obtained as a baculovirus recombinant protein in SF9 cells
Met
  time to peak of Met phosphorylation: 30 min
MDA-MB-4355 spheroids
  induction of branching morphogenesis: incapable of inducing branching morphogenesis

B1: Fab fragment of the DN30 anti-Met antibody: Fab fragment obtained through DN30 papain digestion and affinity purification; induces MET down-regulation (antibody)
heavy: QVQLQQPGTELVKPGASVKLSCKASGYTFTSYWIHWVKQRPGQGLEWIGEINPSSGRTNYNEKFKNKVTVTVDKSSTTAYMQLSNLTSEDSAVYYCASRGYWGQGTTLTVSSAKTTAPSVYPLAPVCGNTTGSSVTLGCLVKGYFPEPVTLTWNSGSLSSGVHTFPAVLQSDLYTLSSSVTVTSSTWPSQSITCNVAHPASSTKVDKKIEPRGPTIKPCPPCKCPAPNLLGGPSVFIFPPKIKDVLMISLSPIVTCVVVDVSEDDPDVQISWFVNNVEVHTAQTQTHREDYNSTLRVVSALPIQHQDWMSGKEFKCKVNNKDLPAPIERTISKPKGSVRAPQVYVLPPPEEEMTKKQVTLTCMVTDFMPEDIYVEWTNNGKTELNYKNTEPVLDSDGSYFMYSKLRVEKKNWVERNSYSCSVVHEGLHNHHTTKSFSRTPGK
light: DIVLTQSPASLAVSLGQRATISCKASQSVDYDGGSYMSWFQQRPGQPPKLLISAASNLESGIPARFSGSGSGTDFTLNIHPVEEEDVATYYCQQSYEDPLTFGAGTKLELKRADAAPTVSIFPPSSEQLTSGGASVVCFLNNFYPKDINVKWKIDGSERQNGVLNSWTDQDSKDSTYSMSSTLTLTKDEYERHNSYTCEATHKTSTSPIVKSFNRNEC
U-251; U-251 irradiated with 10 Gy and cultured with DN30 Fab for 48 h, p<0.05, n=9
  Viability of U-251 (combination vs single treatments): viability significantly reduced with respect to either Fab-DN30 or 10 Gy alone
U-251; irradiated cells kept in the presence of DN30 Fab (28 μg/ml), 10 Gy
  cell viability decrease: up to 75%
